Assay results: patent US4871771A, “Leukotriene antagonists” (SmithKline Beckman Corporation, priority 1988, dated 1989)

What was measured:
[1] = target: T1, [^3 H]-LTB4 binding sites on human U937 cell membranes (Homo sapiens, UniProt Q15722); assay: Receptor binding affinity: competition for [3H]-LTB4 binding sites on human U937 cell membranes; settings: [3H]-LTB4 about 0.2 nM, 25°, 30 minutes
T1 construct: Harvested U937 cells were washed with 50 mM Tris-HCl; endogenous in cells; host or cells: U937 cells (membrane-enriched fraction)
T1 sequence (Q15722 whole entry): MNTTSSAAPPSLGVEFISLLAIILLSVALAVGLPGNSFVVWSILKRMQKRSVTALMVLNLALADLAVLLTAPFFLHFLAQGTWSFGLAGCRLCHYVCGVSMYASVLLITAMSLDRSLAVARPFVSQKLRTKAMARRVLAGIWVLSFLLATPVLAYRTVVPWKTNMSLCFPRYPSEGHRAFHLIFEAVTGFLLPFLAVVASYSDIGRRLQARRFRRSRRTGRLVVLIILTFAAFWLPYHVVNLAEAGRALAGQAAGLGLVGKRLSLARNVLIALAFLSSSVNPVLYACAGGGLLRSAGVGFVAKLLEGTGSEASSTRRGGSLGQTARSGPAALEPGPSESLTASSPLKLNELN

[2] = target: T2, LTB4 Induced Ca^2 + flux (U937 cells) (Homo sapiens, UniProt Q15722); assay: LTB4 induced calcium mobilization (Ca2+ flux) in U937 cells measured with fura-2; type: cell-based
T2 construct: endogenous in cells; host or cells: U937 cells, DMSO-differentiated, intact
T2 sequence (Q15722 whole entry): as above
Protocol: The methods employed were as follows.
Cells were grown both in T-flasks and in Spinner culture.
Harvested cells were resuspended at 2×10^6 cells/ml in Krebs Ringer Hensilet buffer containing 0.1% BSA (RIA grade), 1.1 mM MgSO4, 1.0 mM CaCl2 and 5 mM HEPES (pH 7.4, buffer B). The diacetomethoxy ester of fura-2 (fura-2/AM) was added to a final concentration of 2 uM and cells incubated in the dark for 30 minutes at 37° C. The cells were centrifuged at 800×g for 10 minutes and resuspended at 2×10^6 cells/ml in fresh buffer B and incubated at 37° C. for 20 minutes to allow for complete hydrolysis of entrapped ester. The cells were centrifuged at 800×g for 10 minutes and resuspended in cold fresh buffer B at 5×10^6 cells/ml. Cells were maintained on ice in the dark until used for fluorescent measurements.
The fluorescence of fura-2 containing U937 cells was measured with a fluorometer designed by the Johnson Foundation Biomedical Instrumentation Group. Fluorometer is equipped with temperature control and a magnetic stirrer under the cuvette holder. […] All experiments were performed at 37° C. with constant mixing.
U937 cells were diluted with fresh buffer to a concentration of 1×10^6 cells/ml and maintained in the dark on ice. Aliquots (2 ml) of the cell suspension were put into 4 ml cuvettes and the temperature brought up to 37° C. (maintained in 37° C. water bath for 10 min). Cuvettes were transferred to the fluorometer and fluorescence measured for about one minute before addition of stimulants or antagonists and followed for about 2 minutes post stimulus. Agonists and antagonists were added as 2 ul aliquots.
Antagonists were added first to the cells in the fluorometer in order to detect potential agonist activity. […] [Ca^2+ ]i was calculated using the following formula: [formula] F was the maximum relative fluorescence measurement of the sample. Fmax was determined by lysing the cells with 10 ul of 10% Triton X-100 (final Concentration 0.02%). After Fmax was determined 67 ul of 100 mM EGTA solution (pH 10) was added to totally chelate the Ca^2+ and quench the fura-2 signal and obtain the Fmin. […] The Ki for calcium mobilization was determined using the formula: [formula]

Structure (SMILES) | Ki [1] | Ki [2]
CCCCCCCCCCCCc1ccccc1C(SCCC(=O)O)SCCC(=O)O | 6.5 µM | 
CCCCCCCCCCC#Cc1ccccc1C(SCCC(=O)O)SCCC(=O)O | 7 µM | 
CCCCCCCCCC/C=C\c1ccccc1C(SCCC(=O)O)SCCC(=O)O | 7.3 µM | 
CCCCCCCCCCCOc1ccc(O)cc1C(SCCC(=O)O)SCCC(=O)O | 6 µM | 
O=C(O)CCSC(SCCC(=O)O)c1cc(C(F)(F)F)ccc1CCCCCCCCc1ccccc1 | 9.6 µM | 
O=C(O)CCSC(SCCC(=O)O)c1ccccc1CCCCCCCCCCc1ccccc1 | 11 µM | 4.8 µM
C#CCCCCCCCCCOc1ccccc1C(SCCC(=O)O)SCCC(=O)O | 10 µM | 
O=C(O)CCSC(SCCC(=O)O)c1ccccc1OCCCCCCCc1ccccc1 | 5.3 µM | 
O=C(O)CCSC(SCCC(=O)O)c1ccccc1CCCCCCCCCCCC(F)(F)F |  | 7.8 µM

Further molecules by falling Ki [1], results first:

Ki [1] | Ki [2] | Structure (SMILES)
5.3 µM |  | CCCCCCCCCCCOc1ccccc1C(SCCC(=O)O)SCCC(=O)O
5.3 µM |  | CCCCCCCCCCCCc1ccccc1C(SCCC(=O)O)[S+]([O-])CCC(=O)O (stereo not drawn)
4.5 µM |  | O=C(O)CCSC(SCCC(=O)O)c1ccccc1CCCCCCc1ccccc1
4.4 µM | 7 µM | O=C(O)CCSC(SCCC(=O)O)c1ccccc1CCCCCCCCc1ccccc1
4.3 µM |  | CCCCCCCCCC/C=C/c1ccccc1C(SCCC(=O)O)SCCC(=O)O
4.2 µM | 5.6 µM | CCCCCCCCCCCOc1ccc(Br)cc1C(SCCC(=O)O)SCCC(=O)O
3.3 µM | 6.4 µM | O=C(O)CCSC(SCCC(=O)O)c1ccccc1CCCCCCCSc1ccc(F)cc1
2.8 µM | 6.7 µM | O=C(O)CCSC(SCCC(=O)O)c1ccccc1CCCCCCCSc1ccc(Br)cc1
2.2 µM | 5 µM | CCCCCCCCCCCOc1ccc([N+](=O)[O-])cc1C(SCCC(=O)O)SCCC(=O)O
2.1 µM | 5.2 µM | O=C(O)CCSC(SCCC(=O)O)c1cccc(CCCCCCCCc2ccccc2)c1
1.3 µM | 8.7 µM | O=C(O)CCSC(SCCC(=O)O)c1ccc(C(F)(F)F)cc1CCCCCCCCc1ccccc1
1.2 µM | 7.6 µM | COc1ccc(SCCCCCCCc2ccccc2C(SCCC(=O)O)SCCC(=O)O)cc1
